Measured values taken from patent US20160192658A1 (priority 2013, published 2016).

Assay: in vitro
Details: human

SMILES: NC(=O)c1ncn([C@@H]2O[C@H](CO)[C@@H](O)[C@H]2O)n1 [Ribavirin, ribavirin]
- CC50 at 5 days: > 200 µM
